What was measured:
[1] = tested on: CAL-51; assay: normalised viability (% of control), CellTiter-Blue; higher = more viable cells (about 100 = DMSO control); settings: incubation time: 72 h
Method in brief: (§1)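 Vehicle (100) and a positive kill control (0) anchored the normalisation of each plate, and Z'-factor was used for quality control. Breast cancer cell lines in 20 µl suspension were incubated 72 h over compound in 5 µl medium in 384-well plates, followed by CellTiter-Blue at 560/590 nm. The value is normalised viability at a single listed concentration of the series.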

[2] = tested on: MDA-MB-231; assay: as above; settings: incubation time: 72 h
Method in brief: as §1

[3] = tested on: CAL-120; assay: as above; settings: incubation time: 72 h
Method in brief: as §1

[4] = tested on: HDQ-P1; assay: as above; settings: incubation time: 72 h
Method in brief: as §1

[5] = tested on: HCC1937; assay: as above; settings: incubation time: 72 h
Method in brief: as §1

[6] = tested on: CAL-148; assay: as above; settings: incubation time: 72 h
Method in brief: as §1

[7] = tested on: MFM-223; assay: as above; settings: incubation time: 72 h
Method in brief: as §1

[8] = tested on: HCC1599; assay: as above; settings: incubation time: 72 h
Method in brief: as §1

[9] = tested on: HCC1143; assay: as above; settings: incubation time: 72 h
Method in brief: as §1

[10] = tested on: BT-549; assay: as above; settings: incubation time: 72 h
Method in brief: as §1

[11] = tested on: BT-474; assay: as above; settings: incubation time: 72 h
Method in brief: as §1

[12] = tested on: CAL-85-1; assay: as above; settings: incubation time: 72 h
Method in brief: as §1

[13] = tested on: MDA-MB-468; assay: as above; settings: incubation time: 72 h
Method in brief: as §1

[14] = tested on: DU-4475; assay: as above; settings: incubation time: 72 h
Method in brief: as §1

[15] = tested on: MDA-MB-436; assay: as above; settings: incubation time: 72 h
Method in brief: as §1

[16] = tested on: MDA-MB-453; assay: as above; settings: incubation time: 72 h
Method in brief: as §1

[17] = tested on: SK-BR-3; assay: as above; settings: incubation time: 72 h
Method in brief: as §1

[18] = tested on: CAL-51; assay: normalised viability (% of control), CellTiter-Blue; higher = more viable cells (100 = DMSO, 0 = benzethonium chloride kill control); settings: 0.01 nM; incubation time: 72 h
Method in brief: as §1

[19] = tested on: MDA-MB-231; assay: as above; settings: 1 nM; incubation time: 72 h
Method in brief: as §1

[20] = tested on: CAL-120; assay: as above; settings: 0.01 nM; incubation time: 72 h
Method in brief: as §1

[21] = tested on: HDQ-P1; assay: as above; settings: 0.01 nM; incubation time: 72 h
Method in brief: as §1

[22] = tested on: MFM-223; assay: as above; settings: 0.01 nM; incubation time: 72 h
Method in brief: as §1

[23] = tested on: HCC1143; assay: as above; settings: 0.01 nM; incubation time: 72 h
Method in brief: as §1

[24] = tested on: Hs578T; assay: as above; settings: 0.01 nM; incubation time: 72 h
Method in brief: as §1

[25] = tested on: DU-4475; assay: as above; settings: 0.01 nM; incubation time: 72 h
Method in brief: as §1

[26] = tested on: SK-BR-3; assay: as above; settings: 1 nM; incubation time: 72 h
Method in brief: as §1

CCC/C=C/C=C/C(=O)O[C@H]1/C(=C/C(=O)OC)C[C@H]2C[C@H]([C@@H](C)O)OC(=O)C[C@H](O)C[C@@H]3C[C@H](OC(C)=O)C(C)(C)[C@](O)(C[C@@H]4C/C(=C/C(=O)OC)C[C@H](/C=C/C(C)(C)[C@]1(O)O2)O4)O3 [Bryostatin 1]
Settings | normalised viability [%]
[1], 0.03 nM | 108
[1], 0.3 nM | 104
[1], 1 nM | 108
[2], 10 nM | 101
[2], 1000 nM | 82.8
[2], 10000 nM | 90.2
[3], 0.1 nM | 90.7
[3], 10 nM | 89.1
[3], 100 nM | 93.4
[4], 0.03 nM | 104
[4], 0.3 nM | 106
[4], 1 nM | 107
[5], 10 nM | 108
[5], 1000 nM | 80.2
[5], 10000 nM | 103
[6], 0.03 nM | 91.6
[6], 0.3 nM | 101
[6], 1 nM | 88
[7], 0.1 nM | 97
[7], 10 nM | 91.2
[7], 100 nM | 94.6
[8], 0.1 nM | 112
[8], 10 nM | 116
[8], 100 nM | 115
[9], 0.1 nM | 85.3
[9], 10 nM | 80.5
[9], 100 nM | 80.5
[10], 0.1 nM | 100
[10], 10 nM | 87.9
[10], 100 nM | 100
[11], 10 nM | 109
[11], 1000 nM | 109
[11], 10000 nM | 102
[12], 0.03 nM | 95.3
[12], 0.3 nM | 107
[12], 1 nM | 117
[13], 10 nM | 99.6
[13], 1000 nM | 104
[13], 10000 nM | 94.4
[14], 0.03 nM | 92.7
[14], 0.3 nM | 79.2
[14], 1 nM | 91.2
[15], 0.1 nM | 110
[15], 10 nM | 103
[15], 100 nM | 127
[16], 0.03 nM | 105
[16], 0.3 nM | 95
[16], 1 nM | 94.8
[17], 10 nM | 95
[17], 1000 nM | 67
[17], 10000 nM | 61.4

Settings | normalised viability [%]
[18] | 99.2
[19] | 98.7
[20] | 85.8
[21] | 100
[22] | 96.2
[23] | 114
[24] | 106
[25] | 118
[26] | 103

From the supplement of paper PMC4862054
